Experimental findings from patent US7030107B2, “Fused bicyclic pyridine derivatives as tachykinin receptor antagonists” (Kyorin Pharmaceutical.Co., Ltd., priority 2001, dated 2006) are described below.

Experiment [1] deals with T1, NK1 receptor (Cavia porcellus, UniProt P30547).
T1 construct: from tissue; host or cells: isolated guinea pig ileum
The experiment can be described thus: Test for NK1 receptor antagonist: substance P concentration-response in isolated guinea pig ileum, Schild analysis. It is filed as cell-based. Particulars: antagonism of substance P, 10 min pretreatment, Schild method. How it is done:
(1) Test for NK1 Receptor Antagonist
The method used was according to the method proposed by S. Dion et al. (Dion et al., Life Sciences 41 (1987): 2269), to which minor modifications were made.
Guinea pigs were stunned by a blow on the head and were exsanguinated from the carotid artery and ileum was isolated. The ileum was mounted in an organ bath containing Tyrode's solution which was maintained at 32° C. and gased with 95% O2 and 5% CO2. The ileum was subjected to a resting tension of 1-gram and allowed to equilibrate for 20 minutes before the experiment was started. As a control, a concentration-response curve for substance P obtained in the absence of test compounds was used. The NK1 receptor antagonist activity of each test compound was determined by a concentration-response curve obtained by pretreating at least three concentrations of the test compound for 10 minutes and subsequently applying substance P in a cumulative manner. The Kb values were determined according to the method proposed by Schild and the results are shown in Table 1 (Schild Brit. J. Pharmacol. 14 (1959): 49).
The composition of the Tyrode's solution was as follows: NaCl=136.9, KCl=2.7, CaCl2.2H2O=2.5, MgCl2.6H2O=1.0, NaH2PO4.2H2O=0.4, NaHCO3=11.9, glucose=11.1 (mmol/L)

In experiment [2] the test system is Guinea pigs. Briefly: Cystometry test on guinea pigs with cut spinal cord (effective bladder capacity). The note with it: guinea pig. It is filed as in vivo. The source says:
(2) Cystometry Test on Guinea Pigs
The method used was according to the method proposed by J S. Peterson et al. (Peterson J S. et al., J. Pharmacol. Methods 21 (1989): 231), to which minor modifications were made.
Guinea pigs were anesthetized with halothane and the tenth thoracic spinal cord was cut in each animal. Subsequently, both ureters were ligated and were cut on the kidney-side. Polyethylene catheters were inserted into the bladder to provide an injection pathway for physiological saline and a pathway for the measurement of intravesical pressure. Each animal was restricted in a Ballman cage and was left for more than 2 hours. Subsequently, room-temperature saline was injected through the bladder catheter into the bladder at a rate of 6 mL/hr to conduct a cystometry test. After the effective bladder capacity was stabilized, a test compound was intravenously administered from the jugular vein. The effective bladder capacity is defined as the volume of saline injected from one urination to the next. The effect of each test compound was determined as the increase in the average bladder volume, which was determined by taking difference between the average bladder volume measured 30 minutes prior to the administration of the test compound and the average bladder volume measured every 30 minutes after the administration of the test compound.

T1 sequence (P30547 whole entry): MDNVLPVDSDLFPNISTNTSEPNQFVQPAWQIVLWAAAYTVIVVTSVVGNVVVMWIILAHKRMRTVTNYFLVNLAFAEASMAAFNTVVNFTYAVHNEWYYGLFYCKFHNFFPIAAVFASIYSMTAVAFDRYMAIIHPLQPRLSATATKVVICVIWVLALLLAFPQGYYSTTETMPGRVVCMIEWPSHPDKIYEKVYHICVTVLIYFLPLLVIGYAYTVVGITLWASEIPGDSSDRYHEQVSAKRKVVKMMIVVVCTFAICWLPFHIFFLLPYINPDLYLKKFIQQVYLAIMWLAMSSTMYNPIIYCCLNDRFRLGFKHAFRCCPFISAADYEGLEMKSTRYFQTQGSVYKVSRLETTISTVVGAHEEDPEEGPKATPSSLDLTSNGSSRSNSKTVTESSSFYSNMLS

As a reminder, the Kb is the equilibrium dissociation constant of an antagonist, usually derived from a functional assay. As to `O=C1c2c(-c3ccc(F)cc3)cc(N3CCC(N4CCCC4)CC3)nc2OCCCN1Cc1cc(C(F)(F)F)cc(C(F)(F)F)c1` [Example 4, 5-[3,5-bis(trifluoromethyl)benzyl]-7-(4-fluorophenyl)-6-oxo-9-[4-(pyrrolidine-1-yl)piperidine-1-yl]-2,3,4,5-tetrahydro-6H-pyrido[2,3-b][1,5]oxazocine], in experiment [1], the Kb came to 0.148 nM.

For the molecule `Cc1ccccc1-c1cc(N2CCC(N3CCCC3)CC2)nc2c1C(=O)N(Cc1cc(C(F)(F)F)cc(C(F)(F)F)c1)CCCO2` [Example 7, 5-[3,5-bis(trifluoromethyl)benzyl]-7-(2-methylphenyl)-6-oxo-9-[4-(pyrrolidine-1-yl)piperidine-1-yl]-2,3,4,5-tetrahydro-6H-pyrido[2,3-b][1,5]oxazocine], the Kb in experiment [1] stood at 0.21 nM. Moreover, the figures for the “Increase in bladder capacity” value in experiment [2] (0.3 mg/kg i.v.) and in experiment [2] (1 mg/kg i.v.) were 24.2% and 46.0%, respectively.

On to `Cc1ccccc1-c1cc(N2CCC(N3CCCC3=O)CC2)nc2c1C(=O)N(Cc1cc(C(F)(F)F)cc(C(F)(F)F)c1)CCCO2` [Example 10, 5-[3,5-bis(trifluoromethyl)benzyl]-7-(2-methylphenyl)-6-oxo-9-[4-(2-oxopyrrolidine-1-yl)piperidine-1-yl]-2,3,4,5-tetrahydro-6H-pyrido[2,3-b][1,5]oxazocine], for which, in experiment [1], the Kb was 0.286 nM.

In the case of `Cc1ccccc1-c1cc(N2CCC(N3CCOCC3)CC2)nc2c1C(=O)N(Cc1cc(C(F)(F)F)cc(C(F)(F)F)c1)CCCO2` [Example 9, 5-[3,5-bis(trifluoromethyl)benzyl]-7-(2-methylphenyl)-9-[4-(morpholine-4-yl)piperidine-1-yl]-6-oxo-2,3,4,5-tetrahydro-6H-pyrido[2,3-b][1,5]oxazocine], the Kb in experiment [1] stood at 0.0848 nM.

On to `Cc1ccccc1-c1cc(N2CCC(N(C)C)CC2)nc2c1C(=O)N(Cc1cc(C(F)(F)F)cc(C(F)(F)F)c1)CCCO2` [Example 8, 5-[3,5-bis(trifluoromethyl)benzyl]-9-[4-(dimethylamino)piperidine-1-yl]-7-(2-methylphenyl)-6-oxo-2,3,4,5-tetrahydro-6H-pyrido[2,3-b][1,5]oxazocine], for which, in experiment [1], the Kb stood at 0.275 nM.

With `Cc1ccc(-c2c3n(c(=O)c4ncccc24)CC[C@@H](C)CN(Cc2cc(C(F)(F)F)cc(C(F)(F)F)c2)C3=O)cc1` [TAK-637], the “Increase in bladder capacity” value in experiment [2] (0.3 mg/kg i.v.) was 12.0%; in experiment [2] (1 mg/kg i.v.), 23.8%; in experiment [2] (3 mg/kg i.v.), 20.5%.

Take `O=C1c2c(-c3ccccc3)cc(N3CCC(N4CCCC4)CC3)nc2OCCCN1Cc1cc(C(F)(F)F)cc(C(F)(F)F)c1` [Example 1, 5-[3,5-bis(trifluoromethyl)benzyl]-6-oxo-7-phenyl-9-[4-(pyrrolidine-1-yl)piperidine-1-yl]-2,3,4,5-tetrahydro-6H-pyrido[2,3-b][1,5]oxazocine]: the Kb in experiment [1] came to 0.224 nM.

Take `CC(=O)NC1CCN(c2cc(-c3ccccc3C)c3c(n2)OCCCN(Cc2cc(C(F)(F)F)cc(C(F)(F)F)c2)C3=O)CC1` [Example 13, 9-[4-(acetylamino)piperidine-1-yl]-5-[3,5-bis(trifluoromethyl)benzyl]-7-(2-methylphenyl)-6-oxo-2,3,4,5-tetrahydro-6H-pyrido[2,3-b][1,5]oxazocine]: the Kb in experiment [1] came out at 0.17 nM.
